Source: patent US20220259221A1, “CANNABINOID DERIVATIVES” (CANOPY GROWTH CORPORATION, priority 2019, published 2022)

Columns and labels:
human CB2 receptor = biological target: T1, human CB2 receptor (Homo sapiens, UniProt P34972); assay: CB2 radioligand ([3H]CP55,940) competitive binding assay; details: for Selectivity CB2: fold difference in binding between CB1 and CB2, shown in the column of the receptor with higher affinity, 1.00 in both = about the same affinity
T1 construct: host or cells: CHO-K1 (Chinese hamster ovary) cells, stably transfected; membranes prepared in house
T1 sequence (P34972 whole entry): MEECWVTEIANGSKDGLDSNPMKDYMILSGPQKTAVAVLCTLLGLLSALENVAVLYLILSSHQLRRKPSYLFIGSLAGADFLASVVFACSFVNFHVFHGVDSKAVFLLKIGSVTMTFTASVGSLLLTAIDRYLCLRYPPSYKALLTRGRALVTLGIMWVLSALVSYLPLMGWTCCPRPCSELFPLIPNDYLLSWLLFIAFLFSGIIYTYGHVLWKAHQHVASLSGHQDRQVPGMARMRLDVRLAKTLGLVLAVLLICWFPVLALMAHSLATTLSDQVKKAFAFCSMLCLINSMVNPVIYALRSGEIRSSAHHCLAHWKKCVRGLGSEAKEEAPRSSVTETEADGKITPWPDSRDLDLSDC
Experimental: Compounds of the present disclosure were tested for CB1 receptor binding affinity and for CB2 receptor binding affinity. As used herein, “binding affinity” is represented by the IC50 value, which was experimentally determined as described herein. The lower the IC50 value the higher the binding affinity. A compound of the present disclosure may be said to have “binding selectivity” if it has a higher binding affinity for one receptor compared to the other.
The membranes were prepared from CHO-K1 (Chinese hamster ovary) cells stably transfected with the human CB2 receptor (Cat. #ES-111-C; Perkin Elmer, Boston, Mass.). The cells were grown adherently and maintained in Ham's F12 medium containing 10% fetal bovine serum (FBS), penicillin, streptomycin and geneticin (G418) at 37° C. in a humid atmosphere of 5% CO2 following the manufacturer's instructions.
For membrane preparation the cells were washed with PBS and scraped off the plates in cold homogenization buffer (25 mM HEPES (pH 7.4), 2 mM EDTA) containing protease inhibitor cocktail (Sigma Cat. #P8340). The cell suspension was homogenized with a Pro-PK-01200D Polytron Homogenizer (Pro Scientific) and then centrifuged for 30 min at 120,000× g. The supernatant was discarded and the pellet was re-suspended in the homogenization buffer and stored at −80° C. until the time of use.
In this experiment, 3H radiolabeled CP55,940, i.e. [3H]CP55,940 (Perkin Elmer, Boston, Mass.), was used as a radioligand for the CB2 receptor to determine the binding affinity of compounds for the CB2 receptor (Scheme 4; above).
The competition binding experiments (single dose and dose-response) were performed by incubating 0.6 nM of [3H]CP55,940 (specific activity 101 Ci/mmol, Perkin Elmer) and different concentrations of compounds disclosed herein with membranes prepared as above from CHO-K1 cells expressing human CB2 receptor (1 μg of protein/well), 50 mM Tris-HCl (pH 7.4), 5 mM MgCl2, 1 mM CaCl2, and 2 mg/mL BSA.
For the single dose experiments, the compound stocks (usually 10 mM in DMSO) were diluted to working stocks in the binding buffer to give the final compound concentrations of 10 μM and 1 μM. For the dose-response experiments the test compounds were sequentially diluted to provide the desired concentration range for the IC50 determination. In each case the compounds were pre-incubated with the membrane for 20 min, before adding the radioligand.
After incubation with the radioligand for 60 min at 37° C., the incubation was terminated by rapid filtration of assay mixture through MultiScreen®HTS^+ 96-well filter plates (Millipore, Cat. #MSFCNXB), pre-soaked for 60 min with 50 mM Tris-HCl (pH 7.4) containing 0.33% polyethylenimine (PEI). The nonspecific binding (NSB) was determined in the presence of 10 μM unlabelled CP55,940. After drying the filter plate at 50° C. for at least 60 min, the filter-bound radioactivity was determined by scintillation spectrometry using the 1450 MicroBeta Plate Counter (Perkin Elmer, Boston, Mass.). From the dose-response experiments, the IC50 values were determined (see Table 1, CB2 IC50).

human CB1 receptor [1] = biological target: T2, human CB1 receptor (Homo sapiens, UniProt P21554); assay: biochemical; type: binding; design: host or cells: CHO-K1 (Chinese hamster ovary) cells, stably transfected; membranes prepared in house; details: for Selectivity CB1: fold difference in binding between CB1 and CB2, shown in the column of the receptor with higher affinity, 1.00 in both = about the same affinity
T2 sequence (P21554 whole entry): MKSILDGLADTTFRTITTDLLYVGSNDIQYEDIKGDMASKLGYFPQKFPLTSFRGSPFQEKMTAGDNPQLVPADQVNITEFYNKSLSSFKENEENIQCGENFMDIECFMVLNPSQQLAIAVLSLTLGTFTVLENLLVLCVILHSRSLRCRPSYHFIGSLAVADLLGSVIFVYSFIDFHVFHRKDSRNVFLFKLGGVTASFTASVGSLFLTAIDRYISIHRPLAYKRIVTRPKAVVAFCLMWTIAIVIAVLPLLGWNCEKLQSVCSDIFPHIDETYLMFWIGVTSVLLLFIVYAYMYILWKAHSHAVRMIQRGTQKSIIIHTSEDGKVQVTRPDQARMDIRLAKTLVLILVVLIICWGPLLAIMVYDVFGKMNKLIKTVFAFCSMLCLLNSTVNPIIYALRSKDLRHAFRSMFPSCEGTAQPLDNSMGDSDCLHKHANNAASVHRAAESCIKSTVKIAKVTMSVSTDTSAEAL

human CB1 receptor [2] = biological target: T2, human CB1 receptor; assay: PathHunter β-Arrestin functional assay, CB1 receptor, antagonist mode; type: cell-based
Source text: (§1) In the PathHunter® β-Arrestin system from DiscoveRx (Eurofins, Fremont, Calif.), a small peptide, the ProLink™ (PK), is fused to the intracellular sequence of a GPCR target, and a complementing peptide, the enzyme acceptor (EA) fragment, is fused to β-arrestin. After binding to its specific ligand, the GPCR target recruits β-arrestin, forcing the complementation of the two β-galactosidase enzyme fragments (EA and PK) to produce a functional β-galactosidase enzyme. The enzyme activity, and thus the amount of ligand bound to the GPCR, is detected with a single addition of a reagent cocktail to lyse the cells and produce a chemiluminescent signal before being analyzed using a traditional plate reader.
(§2) PathHunter® CHO-K1 CNR1 β-Arrestin cells (DiscoverRx, cat. Number 93-0959C2) stably expressing CB1 receptor (CB1R) were grown in Ham's F12 medium containing 10% fetal bovine serum (FBS), 1% penicillin/streptomycin, 300 μg/mL Hygromycin B and 800 μg/mL geneticin (G418) and maintained in 37° C. incubators at 5% CO2. […]
(§3) The incubation was terminated by adding the detection reagent (19 parts of 1% CHAPS, 5 parts Emerald-II and 1 part Galacton-Star), equivalent to 50% of the assay volume to each wells. Plates were incubated for 1 hour in the dark at room temperature, followed by chemiluminescence detection using a microplate reader.
(§4) Data were analysed by generating nonlinear regression curves. […]

human CB1 receptor [3] = biological target: T2, human CB1 receptor; assay: PathHunter β-Arrestin functional assay, CB1 receptor, agonist mode; type: cell-based
Source text: as §1, §2, §3, §4

SMILES: CCCCCc1cc2c(c3c1C(=O)OC(CC(C)=O)O3)[C@@H]1C=C(C)CC[C@H]1C(C)(C)O2 (stereo partly shown) [Compound 14b, 8,8,11-trimethyl-2-(2-oxopropyl)-5-pentyl-8a,9,10,12a-tetrahydro-4H,8H-benzo[c][1,3]dioxino[4,5-f]chromen-4-one]
- IC50 (human CB2 receptor): 1000 to 4990 nM
- IC50 (human CB1 receptor [1]): 1000 to 4990 nM
- Selectivity CB1 (human CB1 receptor [1]): 2.69 fold

SMILES: CCCCCc1cc2c(c3c1C(=O)OC(CC)O3)[C@@H]1C=C(C)CC[C@H]1C(C)(C)O2 (stereo partly shown) [Compound 17b, 2-ethyl-8,8,11-trimethyl-5-pentyl-8a,9,10,12a-tetrahydro-4H,8H-benzo[c][1,3]dioxino[4,5-f]chromen-4-one]
- IC50 (human CB2 receptor): < 500 nM
- Selectivity CB2 (human CB2 receptor): 12.73 fold
- IC50 (human CB1 receptor [1]): 1000 to 4990 nM

SMILES: CCCCCc1cc2c(c3c1C(=O)OCO3)[C@@H]1C=C(C)CC[C@H]1C(C)(C)O2 [Compound 1b, 8,8,11-trimethyl-5-pentyl-8a,9,10,12a-tetrahydro-4H,8H-benzo[c][1,3]dioxino[4,5-f]chromen-4-one]
- IC50 (human CB2 receptor): < 500 nM
- Selectivity CB2 (human CB2 receptor): 1.80 fold
- IC50 (human CB1 receptor [1]): 500 to 990 nM

SMILES: CCCCCc1cc2c(c3c1C(=O)OC(C)(C)O3)[C@@H]1C=C(C)CC[C@H]1C(C)(C)O2 [Compound 2b, 2,2,8,8,11-pentamethyl-5-pentyl-8a,9,10,12a-tetrahydro-4H,8H-benzo[c][1,3]dioxino[4,5-f]chromen-4-one]
- IC50 (human CB2 receptor): < 500 nM
- Selectivity CB2 (human CB2 receptor): 1.03 fold
- IC50 (human CB1 receptor [1]): < 500 nM

SMILES: CCCCCc1cc2c(c3c1C(=O)OC(CC(C)=O)(c1ccc(Cl)cc1)O3)[C@@H]1C=C(C)CC[C@H]1C(C)(C)O2 (stereo partly shown) [Compound 23b, 2-(4-chlorophenyl)-8,8,11-trimethyl-2-(2-oxopropyl)-5-pentyl-8a,9,10,12a-tetrahydro-4H,8H-benzo[c][1,3]dioxino[4,5-f]chromen-4-one]
- IC50 (human CB2 receptor): 1000 to 4990 nM
- Selectivity CB2 (human CB2 receptor): 1.00 fold
- IC50 (human CB1 receptor [1]): 1000 to 4990 nM
- Selectivity CB1 (human CB1 receptor [1]): 1.00 fold

SMILES: CCCCCc1cc2c(c3c1C(=O)OC(c1ccccc1)O3)[C@@H]1C=C(C)CC[C@H]1C(C)(C)O2 (stereo partly shown) [Compound 3b, 8,8,11-trimethyl-5-pentyl-2-phenyl-8a,9,10,12a-tetrahydro-4H,8H-benzo[c][1,3]dioxino[4,5-f]chromen-4-one]
- IC50 (human CB2 receptor): 1000 to 4990 nM
- IC50 (human CB1 receptor [1]): 1000 to 4990 nM
- Selectivity CB1 (human CB1 receptor [1]): 1.62 fold

SMILES: CCCCCc1cc2c(c3c1C(=O)OC(C)O3)[C@@H]1C=C(C)CC[C@H]1C(C)(C)O2 (stereo partly shown) [Compound 16b, 2,8,8,11-tetramethyl-5-pentyl-8a,9,10,12a-tetrahydro-4H,8H-benzo[c][1,3]dioxino[4,5-f]chromen-4-one]
- IC50 (human CB2 receptor): < 500 nM
- IC50 (human CB1 receptor [2]): ~3 µM
- relative inhibition in comparison to rimonabant (human CB1 receptor [2]; antagonist mode, normalized to rimonabant): about 35%
- EC50 (human CB1 receptor [3]): ~252 nM
- relative efficacy in comparison to CP55,940 (human CB1 receptor [3]; agonist mode, normalized to CP55,940): about 7%
- IC50 (human CB1 receptor [1]): < 500 nM
- Selectivity CB1 (human CB1 receptor [1]): 1.50 fold

SMILES: CCCCCc1cc2c(c3c1C(=O)OC(CC(C)=O)(c1ccc(F)cc1)O3)[C@@H]1C=C(C)CC[C@H]1C(C)(C)O2 (stereo partly shown) [Compound 13b, 2-(4-fluorophenyl)-8,8,11-trimethyl-2-(2-oxopropyl)-5-pentyl-8a,9,10,12a-tetrahydro-4H,8H-benzo[c][1,3]dioxino[4,5-f]chromen-4-one]
- IC50 (human CB2 receptor): 1000 to 4990 nM
- Selectivity CB2 (human CB2 receptor): 1.00 fold
- IC50 (human CB1 receptor [1]): 1000 to 4990 nM
- Selectivity CB1 (human CB1 receptor [1]): 1.00 fold

SMILES: CCCCCc1cc2c(c3c1C(=O)OC(CC(C)=O)(c1ccccc1)O3)[C@@H]1C=C(C)CC[C@H]1C(C)(C)O2 (stereo partly shown) [Compound 12b, 8,8,11-trimethyl-2-(2-oxopropyl)-5-pentyl-2-phenyl-8a,9,10,12a-tetrahydro-4H,8H-benzo[c][1,3]dioxino[4,5-f]chromen-4-one]
- IC50 (human CB2 receptor): > 5000 nM
- Selectivity CB2 (human CB2 receptor): 1.33 fold
- IC50 (human CB1 receptor [1]): > 5000 nM

SMILES: CCCCCc1cc2c(c3c1C(=O)OC(CC(C)=O)(c1ccc(OC)cc1)O3)[C@@H]1C=C(C)CC[C@H]1C(C)(C)O2 (stereo partly shown) [Compound 21b, 2-(4-methoxyphenyl)-8,8,11-trimethyl-2-(2-oxopropyl)-5-pentyl-8a,9,10,12a-tetrahydro-4H,8H-benzo[c][1,3]dioxino[4,5-f]chromen-4-one]
- IC50 (human CB2 receptor): 1000 to 4990 nM
- Selectivity CB2 (human CB2 receptor): 1.00 fold
- IC50 (human CB1 receptor [1]): 1000 to 4990 nM
- Selectivity CB1 (human CB1 receptor [1]): 1.00 fold
